Experimental data taken from US8802597B2, “Herbicidal pyrimidines” (E I du Pont de Nemours and Company, priority 2003, dated 2014).
Where two headings read alike, the source gives them in different places.

Legend:
Assay in all cases: Test C pre/postemergence
Assay type in all cases: in vivo
[1] = system: bermudagrass (Cynodon dactylon); conditions: Cynodon dactylon; for pest or weed control at 8 g/ha: 8 g ai/ha; for pest or weed control at 16 g/ha: 16 g ai/ha; for pest or weed control at 31 g/ha: 31 g ai/ha; for pest or weed control at 62 g/ha: 62 g ai/ha
In short: (§1)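 Seeds sown and sprayed preemergence with test compound in non-phytotoxic solvent containing surfactant; postemergence sprays, same formulation, went onto plants 2 to 18 cm tall (1- to 4-leaf stage). Plants held in greenhouse 12 to 14 days, then visually rated against untreated controls on a 0–100 scale (0 no effect, 100 complete control).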

[2] = system: common ragweed (Ambrosia elatior); conditions: Ambrosia artemisiifolia; for pest or weed control at 8 g/ha: 8 g ai/ha; for pest or weed control at 16 g/ha: 16 g ai/ha; for pest or weed control at 31 g/ha: 31 g ai/ha; for pest or weed control at 62 g/ha: 62 g ai/ha
In short: as §1

[3] = system: goosegrass (Eleusine indica); conditions: Eleusine indica; for pest or weed control at 8 g/ha: 8 g ai/ha; for pest or weed control at 16 g/ha: 16 g ai/ha; for pest or weed control at 31 g/ha: 31 g ai/ha; for pest or weed control at 62 g/ha: 62 g ai/ha
In short: as §1

[4] = system: soybean (Glycine max); conditions: Glycine max; for plant injury at 8 g/ha: 8 g ai/ha; for plant injury at 16 g/ha: 16 g ai/ha; for plant injury at 31 g/ha: 31 g ai/ha; for plant injury at 62 g/ha: 62 g ai/ha
In short: as §1

[5] = system: johnsongrass (Sorghum halepense); conditions: Sorghum halepense; for pest or weed control at 8 g/ha: 8 g ai/ha; for pest or weed control at 16 g/ha: 16 g ai/ha; for pest or weed control at 31 g/ha: 31 g ai/ha; for pest or weed control at 62 g/ha: 62 g ai/ha
In short: as §1

[6] = system: cocklebur (Xanthium strumarium); conditions: Xanthium strumarium; for pest or weed control at 8 g/ha: 8 g ai/ha; for pest or weed control at 16 g/ha: 16 g ai/ha; for pest or weed control at 31 g/ha: 31 g ai/ha; for pest or weed control at 62 g/ha: 62 g ai/ha
In short: as §1

[7] = system: common (oilseed) sunflower (Helianthus annuus); conditions: Helianthus annuus, pre-emergence, Preemergence, read-out: Plant response rating, Sunflower
In short: as §1

[8] = system: velvetleaf (Abutilon theophrasti); conditions: Abutilon theophrasti; for pest or weed control at 8 g/ha: 8 g ai/ha; for pest or weed control at 16 g/ha: 16 g ai/ha; for pest or weed control at 31 g/ha: 31 g ai/ha; for pest or weed control at 62 g/ha: 62 g ai/ha
In short: as §1

[9] = system: eastern black nightshade (Solanum ptycanthum); conditions: Solanum, pre-emergence, Preemergence, read-out: Plant response rating, Nightshade
In short: as §1

[10] = system: kochia (Kochia scoparia); conditions: Bassia scoparia; for pest or weed control at 8 g/ha: 8 g ai/ha; for pest or weed control at 16 g/ha: 16 g ai/ha; for pest or weed control at 31 g/ha: 31 g ai/ha; for pest or weed control at 62 g/ha: 62 g ai/ha
In short: as §1

[11] = system: pigweed (Amaranthus retroflexus); conditions: Amaranthus retroflexus; for pest or weed control at 8 g/ha: 8 g ai/ha; for pest or weed control at 16 g/ha: 16 g ai/ha; for pest or weed control at 31 g/ha: 31 g ai/ha; for pest or weed control at 62 g/ha: 62 g ai/ha
In short: as §1

[12] = system: lambsquarters (Chenopodium album); conditions: Chenopodium album; for pest or weed control at 8 g/ha: 8 g ai/ha; for pest or weed control at 16 g/ha: 16 g ai/ha; for pest or weed control at 31 g/ha: 31 g ai/ha; for pest or weed control at 62 g/ha: 62 g ai/ha
In short: as §1

[13] = post-emergence, Postemergence, read-out: Plant response rating (scale of 0 to 100), Bermudagrass
[14] = pre-emergence, Preemergence, scale 0 to 100, 0 no effect, 100 complete control, read-out: Plant response rating, Bermudagrass
[15] = post-emergence, Postemergence, read-out: Plant response rating (scale of 0 to 100), Ragweed
[16] = pre-emergence, Preemergence, scale 0 to 100, 0 no effect, 100 complete control, read-out: Plant response rating, Ragweed
[17] = post-emergence, Postemergence, read-out: Plant response rating (scale of 0 to 100), Goosegrass
[18] = pre-emergence, Preemergence, scale 0 to 100, 0 no effect, 100 complete control, read-out: Plant response rating, Goosegrass
[19] = post-emergence, Postemergence, read-out: Plant response rating (scale of 0 to 100), Soybean
[20] = pre-emergence, Preemergence, scale 0 to 100, 0 no effect, 100 complete control, read-out: Plant response rating, Soybean
[21] = post-emergence, Postemergence, read-out: Plant response rating (scale of 0 to 100), Johnsongrass
[22] = pre-emergence, Preemergence, scale 0 to 100, 0 no effect, 100 complete control, read-out: Plant response rating, Johnsongrass
[23] = post-emergence, Postemergence, read-out: Plant response rating (scale of 0 to 100), Cocklebur
[24] = pre-emergence, Preemergence, scale 0 to 100, 0 no effect, 100 complete control, read-out: Plant response rating, Cocklebur
[25] = 8 g ai/ha, scale 0 to 100 (0 no effect, 100 complete control)
[26] = 16 g ai/ha, scale 0 to 100, 0 no effect, 100 complete control
[27] = 31 g ai/ha, scale 0 to 100, 0 no effect, 100 complete control
[28] = 62 g ai/ha, scale 0 to 100, 0 no effect, 100 complete control
[29] = post-emergence, Postemergence, read-out: Plant response rating (scale of 0 to 100), Velvetleaf
[30] = pre-emergence, Preemergence, scale 0 to 100, 0 no effect, 100 complete control, read-out: Plant response rating, Velvetleaf
[31] = post-emergence, Postemergence, read-out: Plant response rating (scale of 0 to 100), Kochia
[32] = pre-emergence, Preemergence, scale 0 to 100, 0 no effect, 100 complete control, read-out: Plant response rating, Kochia
[33] = post-emergence, Postemergence, read-out: Plant response rating (scale of 0 to 100), Pigweed
[34] = pre-emergence, Preemergence, scale 0 to 100, 0 no effect, 100 complete control, read-out: Plant response rating, Pigweed
[35] = post-emergence, Postemergence, read-out: Plant response rating (scale of 0 to 100), Lambsquarters
[36] = pre-emergence, Preemergence, scale 0 to 100, 0 no effect, 100 complete control, read-out: Plant response rating, Lambsquarters

Nc1nc(-c2ccc(Br)cc2)nc(C(=O)O)c1Cl [Compound 95, 6-amino-2-(4-bromophenyl)-5-chloro-4-pyrimidinecarboxylic acid]
pest or weed control at 8 g/ha ([1]; post-emergence, Postemergence, scale 0 to 100 (0 no effect, 100 complete control), read-out: Plant response rating, Bermudagrass): 70%
pest or weed control at 16 g/ha [1, 13]: 70%
pest or weed control at 31 g/ha [1, 13]: 85%
pest or weed control at 62 g/ha ([1]; post-emergence, Postemergence, scale 0 to 100 (0 no effect, 100 complete control), read-out: Bermudagrass plant response rating): 85%
pest or weed control at 8 g/ha ([1]; pre-emergence, Preemergence, scale 0 to 100 (0 no effect, 100 complete control), read-out: Plant response rating, Bermudagrass): 0%
pest or weed control at 16 g/ha [1, 14]: 0%
pest or weed control at 31 g/ha [1, 14]: 0%
pest or weed control at 62 g/ha [1, 14]: 55%
pest or weed control at 8 g/ha ([2]; post-emergence, Postemergence, scale 0 to 100, read-out: Plant response rating, Ragweed): 90%
pest or weed control at 16 g/ha [2, 15]: 95%
pest or weed control at 31 g/ha [2, 15]: 95%
pest or weed control at 62 g/ha [2, 15]: 95%
pest or weed control at 8 g/ha ([2]; pre-emergence, Preemergence, scale 0 to 100 (0 no effect, 100 complete control), read-out: Plant response rating, Ragweed): 65%
pest or weed control at 16 g/ha [2, 16]: 90%
pest or weed control at 31 g/ha [2, 16]: 100%
pest or weed control at 62 g/ha [2, 16]: 100%
pest or weed control at 8 g/ha ([3]; post-emergence, Postemergence, scale 0 to 100, read-out: Plant response rating, Goosegrass): 50%
pest or weed control at 16 g/ha [3, 17]: 65%
pest or weed control at 31 g/ha [3, 17]: 75%
pest or weed control at 62 g/ha [3, 17]: 80%
pest or weed control at 8 g/ha ([3]; pre-emergence, Preemergence, scale 0 to 100 (0 no effect, 100 complete control), read-out: Plant response rating, Goosegrass): 0%
pest or weed control at 16 g/ha [3, 18]: 0%
pest or weed control at 31 g/ha [3, 18]: 10%
pest or weed control at 62 g/ha [3, 18]: 40%
plant injury at 8 g/ha ([4]; post-emergence, Postemergence, scale 0 to 100, read-out: Plant response rating, Soybean): 100%
plant injury at 16 g/ha [4, 19]: 100%
plant injury at 31 g/ha [4, 19]: 100%
plant injury at 62 g/ha [4, 19]: 100%
plant injury at 8 g/ha ([4]; pre-emergence, Preemergence, scale 0 to 100 (0 no effect, 100 complete control), read-out: Plant response rating, Soybean): 90%
plant injury at 16 g/ha [4, 20]: 90%
plant injury at 31 g/ha [4, 20]: 100%
plant injury at 62 g/ha [4, 20]: 100%
pest or weed control at 8 g/ha ([5]; post-emergence, Postemergence, scale 0 to 100, read-out: Plant response rating, Johnsongrass): 55%
pest or weed control at 16 g/ha [5, 21]: 70%
pest or weed control at 31 g/ha [5, 21]: 75%
pest or weed control at 62 g/ha [5, 21]: 90%
pest or weed control at 8 g/ha ([5]; pre-emergence, Preemergence, scale 0 to 100 (0 no effect, 100 complete control), read-out: Plant response rating, Johnsongrass): 0%
pest or weed control at 16 g/ha [5, 22]: 50%
pest or weed control at 31 g/ha [5, 22]: 60%
pest or weed control at 62 g/ha [5, 22]: 80%
pest or weed control at 8 g/ha ([6]; post-emergence, Postemergence, scale 0 to 100, read-out: Plant response rating, Cocklebur): 100%
pest or weed control at 16 g/ha [6, 23]: 100%
pest or weed control at 31 g/ha [6, 23]: 100%
pest or weed control at 62 g/ha [6, 23]: 100%
pest or weed control at 8 g/ha ([6]; pre-emergence, Preemergence, scale 0 to 100 (0 no effect, 100 complete control), read-out: Plant response rating, Cocklebur): 0%
pest or weed control at 16 g/ha [6, 24]: 0%
pest or weed control at 31 g/ha [6, 24]: 0%
pest or weed control at 62 g/ha [6, 24]: 60%
pest or weed control at 8 g/ha [7, 25]: 5%
pest or weed control at 16 g/ha [7, 26]: 40%
pest or weed control at 31 g/ha [7, 27]: 95%
pest or weed control at 62 g/ha [7, 28]: 100%
pest or weed control at 8 g/ha ([8]; post-emergence, Postemergence, scale 0 to 100, read-out: Plant response rating, Velvetleaf): 95%
pest or weed control at 16 g/ha [8, 29]: 95%
pest or weed control at 31 g/ha [8, 29]: 100%
pest or weed control at 62 g/ha [8, 29]: 100%
pest or weed control at 8 g/ha ([8]; pre-emergence, Preemergence, scale 0 to 100 (0 no effect, 100 complete control), read-out: Plant response rating, Velvetleaf): 0%
pest or weed control at 16 g/ha [8, 30]: 0%
pest or weed control at 31 g/ha [8, 30]: 60%
pest or weed control at 62 g/ha [8, 30]: 90%
pest or weed control at 8 g/ha [9, 25]: 0%
pest or weed control at 16 g/ha [9, 26]: 0%
pest or weed control at 31 g/ha [9, 27]: 60%
pest or weed control at 62 g/ha [9, 28]: 75%
pest or weed control at 8 g/ha ([10]; post-emergence, Postemergence, scale 0 to 100, read-out: Plant response rating, Kochia): 90%
pest or weed control at 16 g/ha [10, 31]: 95%
pest or weed control at 31 g/ha [10, 31]: 95%
pest or weed control at 62 g/ha [10, 31]: 95%
pest or weed control at 8 g/ha ([10]; pre-emergence, Preemergence, scale 0 to 100 (0 no effect, 100 complete control), read-out: Plant response rating, Kochia): 0%
pest or weed control at 16 g/ha [10, 32]: 0%
pest or weed control at 31 g/ha [10, 32]: 40%
pest or weed control at 62 g/ha [10, 32]: 45%
pest or weed control at 8 g/ha ([11]; post-emergence, Postemergence, scale 0 to 100, read-out: Plant response rating, Pigweed): 90%
pest or weed control at 16 g/ha [11, 33]: 95%
pest or weed control at 31 g/ha [11, 33]: 100%
pest or weed control at 62 g/ha [11, 33]: 100%
pest or weed control at 8 g/ha ([11]; pre-emergence, Preemergence, scale 0 to 100 (0 no effect, 100 complete control), read-out: Plant response rating, Pigweed): 50%
pest or weed control at 16 g/ha [11, 34]: 90%
pest or weed control at 31 g/ha [11, 34]: 100%
pest or weed control at 62 g/ha [11, 34]: 100%
pest or weed control at 8 g/ha ([12]; post-emergence, Postemergence, scale 0 to 100, read-out: Plant response rating, Lambsquarters): 75%
pest or weed control at 16 g/ha [12, 35]: 100%
pest or weed control at 31 g/ha [12, 35]: 100%
pest or weed control at 62 g/ha [12, 35]: 100%
pest or weed control at 8 g/ha ([12]; pre-emergence, Preemergence, scale 0 to 100 (0 no effect, 100 complete control), read-out: Plant response rating, Lambsquarters): 0%
pest or weed control at 16 g/ha [12, 36]: 100%
pest or weed control at 31 g/ha [12, 36]: 100%
pest or weed control at 62 g/ha [12, 36]: 100%
